Values joined by “and” are separate entries in the source; they are usually repeats but may differ in a detail not shown here. Equal entries are not always repeated.
System: human A549 epithelial cells
Assay: Resgen Human cDNA arrays (PRHU03-S3) of A549 cells treated with peptide (Tables 21-26)
Conditions: 50 μg/ml, 4 h

CC[C@H](C)[C@H](N)C(=O)N[C@@H](CC(C)C)C(=O)N1CCC[C@H]1C(=O)N[C@@H](Cc1c[nH]c2ccccc12)C(=O)N[C@@H](CCCCN)C(=O)N[C@@H](Cc1c[nH]c2ccccc12)C(=O)N1CCC[C@H]1C(=O)N[C@@H](Cc1c[nH]c2ccccc12)C(=O)N[C@@H](Cc1c[nH]c2ccccc12)C(=O)N1CCC[C@H]1C(=O)N[C@@H](Cc1c[nH]c2ccccc12)C(=O)N[C@@H](CCCNC(=N)N)C(=O)N[C@@H](CCCNC(=N)N)C(N)=O [SEQ ID NO: 2]
Ratio Peptide:Unstimulated, catenin (cadherin-associated protein), delta 1 (AA025276): 1.2
Ratio Peptide:Unstimulated, integrin, beta 3 (AA037229): 2.7
Ratio Peptide:Unstimulated, Epstein-Barr virus induced polynucleotide 2 (AA037376): 1.6
Ratio Peptide:Unstimulated, disintegrin and metalloproteinase domain 10 (AA043347): 1.5
Ratio Peptide:Unstimulated, MAP kinase kinase kinase kinase 3 (AA043537): 0.45
Ratio Peptide:Unstimulated, protein tyrosine phosphatase, receptor type, J (AA045326): 3.6
Ratio Peptide:Unstimulated, MAP kinase kinase kinase 12 (AA053674): 0.20
Ratio Peptide:Unstimulated, integrin, alpha 7 (AA055979): 0.57
Ratio Peptide:Unstimulated, leukocyte immunoglobulin-like receptor, subfamily B (with TM and ITIM domains), member 4 (AA076350): 0.75
Ratio Peptide:Unstimulated, phospholipase A2 receptor 1 (AA086038): 2.8
Ratio Peptide:Unstimulated, IL-8 (AA102526): 3.6
Ratio Peptide:Unstimulated, cadherin 11, type 2, OB-cadherin (osteoblast) (AA136983): 0.23
Ratio Peptide:Unstimulated, TNF R superfamily, member 1B (AA150416, listed as ID 2): 18 and 17.09
Ratio Peptide:Unstimulated, MAP kinase 9 (AA157286): 0.57
Ratio Peptide:Unstimulated, macrophage stimulating 1 R (AA173454): 1.7
Ratio Peptide:Unstimulated, killer cell lectin-like receptor subfamily C, member 2 (AA190627): 9.7
Ratio Peptide:Unstimulated, TNF R superfamily, member 11b (AA194983, listed as ID 2): 5.3 and 5.29
Ratio Peptide:Unstimulated, disintegrin and metalloproteinase domain 8 (AA279188): 3.1
Ratio Peptide:Unstimulated, BCL2-interacting killer (apoptosis-inducing) (AA291323): 1.9
Ratio Peptide:Unstimulated, disintegrin-like and metalloprotease with thrombosondin type 1 motif, 3 (AA398492): 0.32
Ratio Peptide:Unstimulated, MAP kinase kinase kinase 4 (AA402447): 0.37
Ratio Peptide:Unstimulated, prostaglandin E receptor 3 (subtype EP3) (AA406362): 4.1
Ratio Peptide:Unstimulated, MAP kinase kinase kinase kinase 4 (AA417711): 0.96
Ratio Peptide:Unstimulated, MAP kinase 8 interacting protein 2 (AA418293): 0.07
Ratio Peptide:Unstimulated, integrin, alpha 3 (antigen CD49C, alpha 3 subunit of VLA-3 receptor) (AA424695): 0.8
Ratio Peptide:Unstimulated, cadherin 3, type 1, P-cadherin (placental) (AA425217): 0.43
Ratio Peptide:Unstimulated, integrin, alpha E (AA425451): 180
Ratio Peptide:Unstimulated, formyl peptide receptor 1 (AA425767): 3.1
Ratio Peptide:Unstimulated, MAP kinase kinase 2 (AA425826): 1.20
Ratio Peptide:Unstimulated, cytokine inducible SH2-containing protein (AA427521): 33
Ratio Peptide:Unstimulated, integrin, beta 5 (AA434397): 0.32
Ratio Peptide:Unstimulated, protein tyrosine phosphatase, non-receptor type 9 (AA434420): 3.5
Ratio Peptide:Unstimulated, protein tyrosine phosphatase, non-receptor type 12 (AA446259): 2.3
Ratio Peptide:Unstimulated, caspase 8, apoptosis-related cysteine protease (AA448468): 2.2
Ratio Peptide:Unstimulated, growth factor receptor-bound protein 2 (AA449831): 2.2
Ratio Peptide:Unstimulated, endothelin receptor type A (AA450009): 12
Ratio Peptide:Unstimulated, integrin, alpha 1 (AA450324): 0.41
Ratio Peptide:Unstimulated, Human proteinase activated R-2 (AA454652): 6.1
Ratio Peptide:Unstimulated, IL-11 R alpha (AA454657): 2.4
Ratio Peptide:Unstimulated, CSF 3 R (AA458507): 1.9
Ratio Peptide:Unstimulated, integrin, alpha 10 (AA460959): 0.33
Ratio Peptide:Unstimulated, MAP kinase kinase kinase 7 (AA460969): 0.97
Ratio Peptide:Unstimulated, NK cell R (AA463248): 2.5
Ratio Peptide:Unstimulated, integrin, alpha 2 (CD49B, alpha 2 subunit of VLA-2 receptor) (AA463257): 0.9
Ratio Peptide:Unstimulated, IL-1 receptor, type I (AA464526): 0.34
Ratio Peptide:Unstimulated, protein tyrosine phosphatase, receptor type, E (AA464542): 0.23
Ratio Peptide:Unstimulated, protein tyrosine phosphatase, receptor type, N polypeptide 2 (AA464590): 0.02
Ratio Peptide:Unstimulated, protein tyrosine phosphatase, receptor-type, Z polypeptide 1 (AA476461): 0.63
Ratio Peptide:Unstimulated, intercellular adhesion molecule 3 (AA479188): 0.12
Ratio Peptide:Unstimulated, protein tyrosine phosphatase, receptor type, C-associated protein (AA481547): 5.1
Ratio Peptide:Unstimulated, IL-18 receptor 1 (AA482489): 0.50
Ratio Peptide:Unstimulated, vitamin D R (AA485226): 2.5
Ratio Peptide:Unstimulated, integrin, beta 4 (AA485668): 0.8
Ratio Peptide:Unstimulated, IL-10 R beta (AA486393, listed as ID 2): 2.5 and 2.51
Ratio Peptide:Unstimulated, calcium and integrin binding protein (AA487575): 2.8
Ratio Peptide:Unstimulated, TRAF and TNF receptor-associated protein (AA488650): 0.75
Ratio Peptide:Unstimulated, cytokine-inducible kinase (AA489234): 0.41
Ratio Peptide:Unstimulated, small inducible cytokine subfamily A (Cys—Cys), member 18 (AA495985): 0.32
Ratio Peptide:Unstimulated, programmed cell death 8 (apoptosis-inducing factor) (AA496348): 1.07
Ratio Peptide:Unstimulated, melanoma adhesion molecule (AA497002): 7.9
Ratio Peptide:Unstimulated, TNF receptor-associated factor 3 (AA504259): 0.15
Ratio Peptide:Unstimulated, apoptosis-related protein PNAS-1 (AA521316): 2.2
Ratio Peptide:Unstimulated, complement component receptor 2 (AA521362): 26
Ratio Peptide:Unstimulated, laminin R 1 (67 kD, ribosomal protein SA) (AA629897): 0.4
Ratio Peptide:Unstimulated, protein tyrosine phosphatase, receptor type, U (AA644448): 6.1
Ratio Peptide:Unstimulated, integrin, beta 3 (AA666269): 2.6
Ratio Peptide:Unstimulated, regulator of G-protein signaling 5 (AA668470): 0.27
Ratio Peptide:Unstimulated, T cell R delta locus (AA670107): 2.7
Ratio Peptide:Unstimulated, small inducible cytokine A3 (homologous to mouse Mip-1a) (AA677522): 1.79
Ratio Peptide:Unstimulated, protein tyrosine phosphatase, non-receptor type 13 (AA679180): 1.7
Ratio Peptide:Unstimulated, protein tyrosine phosphatase, non-receptor type 3 (AA682684): 1.0
Ratio Peptide:Unstimulated, v-SNARE R (AA704511): 11
Ratio Peptide:Unstimulated, adenosine A3 R (AA863086): 2.0
Ratio Peptide:Unstimulated, integrin, alpha 9 (AA865557): 0.86
Ratio Peptide:Unstimulated, small inducible cytokine subfamily B (Cys-X-Cys), member 10 (AA878880): 0.50
Ratio Peptide:Unstimulated, interleukin enhancer binding factor 2 (AA894687): 1.3
Ratio Peptide:Unstimulated, IL-2 receptor, alpha (AA903183): 0.41
Ratio Peptide:Unstimulated, small inducible cytokine subfamily A (Cys—Cys), member 23 (AA916836): 0.38
Ratio Peptide:Unstimulated, CD2 (AA927710, listed as ID 2): 2.6 and 2.62
Ratio Peptide:Unstimulated, prostaglandin E receptor 1 (subtype EP1) (AA972293): 7.2
Ratio Peptide:Unstimulated, IL-12 receptor, beta 2 (AA977194): 0.67
Ratio Peptide:Unstimulated, protein tyrosine phosphatase, non-receptor type 11 (AA995560): 2.9
Ratio Peptide:Unstimulated, integrin beta 4 binding protein (AI017019): 1.7
Ratio Peptide:Unstimulated, VIP R 2 (AI057229): 3.1
Ratio Peptide:Unstimulated, orphan seven-transmembrane receptor, chemokine related (AI131555): 1.06
Ratio Peptide:Unstimulated, IL-1 R antagonist homolog 1 (AI167887, listed as ID 2): 3086 and 3085.96
Ratio Peptide:Unstimulated, MAP kinase 8 interacting protein 2 (AI202738): 0.16
Ratio Peptide:Unstimulated, disintegrin and metalloproteinase domain 18 (AI205675): 0.40
Ratio Peptide:Unstimulated, regulator of G-protein signaling 20 (AI264190): 48
